Measurements from PubChem BioAssay (NCI).
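The concentration for 50% growth inhibition is given as GI50. TGI denotes the concentration required for complete inhibition of growth.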

Legend:
Test in all cases: NCI-60 cell line screen, 384-well format
786-0 renal = system: 786-0 renal
DU-145 prostate = system: DU-145 prostate
MCF7 breast = system: MCF7 breast
TK-10 renal = system: TK-10 renal
UACC-257 melanoma = system: UACC-257 melanoma
SK-MEL-28 melanoma = system: SK-MEL-28 melanoma
LOX IMVI melanoma = system: LOX IMVI melanoma
A549 NSCLC = system: A549 NSCLC
SF-295 CNS = system: SF-295 CNS
HL-60(TB) leukemia = system: HL-60(TB) leukemia
M14 melanoma = system: M14 melanoma
SK-MEL-2 melanoma = system: SK-MEL-2 melanoma
SK-OV-3 ovarian = system: SK-OV-3 ovarian

SMILES: O=C(Nc1cccc(NS(=O)(=O)c2ccc(F)cc2)c1)c1ccc(-c2ccccc2)cc1
- GI50 (786-0 renal): 2950 nM
- TGI (786-0 renal): 10.6 µM
- GI50 (DU-145 prostate): 4.44 µM
- TGI (DU-145 prostate): 26.5 µM
- GI50 (MCF7 breast): 4.23 µM
- TGI (MCF7 breast): 14.4 µM
- GI50 (TK-10 renal): 4.17 µM
- TGI (TK-10 renal): 19.2 µM
- GI50 (UACC-257 melanoma): 4.02 µM
- TGI (UACC-257 melanoma): 16.7 µM
- GI50 (SK-MEL-28 melanoma): 17.1 µM
- TGI (SK-MEL-28 melanoma): 38.5 µM
- GI50 (LOX IMVI melanoma): 3.31 µM
- TGI (LOX IMVI melanoma): 11.4 µM
- GI50 (A549 NSCLC): 4.07 µM
- TGI (A549 NSCLC): > 100 µM
- GI50 (SF-295 CNS): 2790 nM
- TGI (SF-295 CNS): 10.1 µM
- GI50 (HL-60(TB) leukemia): 1730 nM
- TGI (HL-60(TB) leukemia): 3.46 µM
- GI50 (M14 melanoma): 6.38 µM
- TGI (M14 melanoma): 19.5 µM
- GI50 (SK-MEL-2 melanoma): 12.9 µM
- TGI (SK-MEL-2 melanoma): 26.3 µM
- GI50 (SK-OV-3 ovarian): 5.43 µM
- TGI (SK-OV-3 ovarian): 28.3 µM
